The target of one test is T1, SCD1 (Homo sapiens, UniProt O00767).
T1 construct: host or cells: Saccharomyces cerevisiae ole1Δ strain (W303 pdr1Δ pdr3Δ background), plasmid pRS316, TDH3 promoter
T1 sequence (O00767 1-359): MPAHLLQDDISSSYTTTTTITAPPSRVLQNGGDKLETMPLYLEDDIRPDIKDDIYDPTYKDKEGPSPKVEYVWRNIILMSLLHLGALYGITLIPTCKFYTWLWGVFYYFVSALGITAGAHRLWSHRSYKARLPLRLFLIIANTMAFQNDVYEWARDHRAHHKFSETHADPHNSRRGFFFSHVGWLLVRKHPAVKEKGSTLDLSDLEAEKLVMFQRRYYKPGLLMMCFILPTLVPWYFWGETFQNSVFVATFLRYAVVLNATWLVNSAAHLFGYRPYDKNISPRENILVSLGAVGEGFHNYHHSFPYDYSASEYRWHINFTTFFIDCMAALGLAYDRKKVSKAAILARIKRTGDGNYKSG
Put plainly: Growth inhibition of yeast (ole1Δ) expressing human SCD1 as the sole desaturase. The note with it: read-out: SCD1 IC50. In kind it is cell-based.

The next test concerns the target T2, SCD5 (Homo sapiens, UniProt Q86SK9).
T2 construct: host or cells: Saccharomyces cerevisiae ole1Δ strain (W303 pdr1Δ pdr3Δ background), plasmid pRS316, TDH3 promoter
T2 sequence (Q86SK9 1-330): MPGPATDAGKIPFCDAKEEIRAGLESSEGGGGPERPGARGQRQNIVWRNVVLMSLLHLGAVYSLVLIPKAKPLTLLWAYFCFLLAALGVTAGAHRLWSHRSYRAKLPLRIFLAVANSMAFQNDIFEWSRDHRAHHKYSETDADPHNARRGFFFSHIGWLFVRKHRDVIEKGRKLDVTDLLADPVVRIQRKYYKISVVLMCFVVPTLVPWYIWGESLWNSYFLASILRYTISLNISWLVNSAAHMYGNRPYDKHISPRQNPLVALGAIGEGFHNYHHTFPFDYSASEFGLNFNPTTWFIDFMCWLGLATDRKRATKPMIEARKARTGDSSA
Briefly: Growth inhibition of yeast (ole1Δ) expressing human SCD5 as the sole desaturase. Particulars: read-out: SCD5 IC50. In kind it is cell-based.

Setting [1] is: yeast strain with SCD1 plasmid, OD600 growth read at 40 h.
[2] abbreviates: yeast strain with SCD5 plasmid, OD600 growth read at 40 h.

For orientation: IC50 means the concentration that inhibits the measured activity by half.

SMILES strings stand for the structures. Read-outs that look alike come from different tables or passages of the source. A value given as a limit tells only on which side of the number the result lay.

With `Cn1nc(NC(=O)N2CCC[C@@H](c3ccc(Cl)cc3)CC2)ccc1=O` [Compound 31], the IC50 on SCD1 (setting [1]) is 39000 nM; on SCD5 (setting [2]) it was over 45000 nM.

Regarding `Cn1nc(NC(=O)N2CCC[C@@H](c3cc(F)cc(F)c3)CC2)ccc1=O` [Compound 32], the IC50 came out at 7200 nM on SCD1 (setting [1]) and 21000 nM at SCD5 (setting [2]).

In the case of `Cn1nc(NC(=O)N2CCC(=Cc3cc(F)cc(F)c3)CC2)ccc1=O` [Compound 33, 4-(3,5-difluorobenzylidene)-N-(1-methyl-6-oxo-1,6-dihydropyridazin-3-yl)piperidine-1-carboxamide], the IC50 on SCD1 (setting [1]) was determined as 440 nM; on SCD5 (setting [2]), 140 nM.

With `O=C(Cc1ccc(=O)[nH]n1)N1CCC(Cc2cccc(Cl)c2)CC1` [Compound 34], the IC50 at SCD1 (setting [1]) is over 45000 nM; on SCD5 (setting [2]), 8200 nM.

Regarding `O=C(Cc1ccc(=O)[nH]n1)N1CCC(Cc2cc(F)cc(F)c2)CC1` [Compound 35], the IC50 was over 45000 nM on SCD1 (setting [1]) and 20400 nM at SCD5 (setting [2]).

`O=C(Cc1ccc(=O)[nH]n1)N1CCC(Oc2cccc(Cl)c2)CC1` [Compound 36, 6-(2-(4-(3-chlorophenoxy)piperidin-1-yl)-2-oxoethyl)pyridazin-3(2H)-one]: the IC50 at SCD1 (setting [1]) stood at 25500 nM; on SCD5 (setting [2]) it was 5350 nM.

As for `Cn1nc(CC(=O)N2CCC(Cc3cccc(Cl)c3)CC2)ccc1=O` [Compound 37, 6-(2-(4-(3-chlorobenzyl)piperidin-1-yl)-2-oxoethyl)-2-methylpyridazin-3(2H)-one], the IC50 on SCD1 (setting [1]) was 12700 nM; at SCD5 (setting [2]) it was 4360 nM.

With `Cn1nc(CC(=O)N2CCC(Cc3cc(F)cc(F)c3)CC2)ccc1=O` [Compound 38, 6-(2-(4-(3,5-difluorobenzyl)piperidin-1-yl)-2-oxoethyl)-2-methylpyridazin-3(2H)-one], the values for the IC50 at SCD1 (setting [1]) and on SCD5 (setting [2]) were 17200 nM and 6370 nM, respectively.

For `Cn1nc(CC(=O)N2CCC(Oc3cccc(Cl)c3)CC2)ccc1=O` [Compound 39], the IC50 on SCD1 (setting [1]) came out at 1350 nM; on SCD5 (setting [2]), 1380 nM.

For the compound `Cn1nc(NC(=O)N2CCC(Cc3cccc(F)c3)CC2)ccc1=O` [Compound 41, 4-(3-fluorobenzyl)-N-(1-methyl-6-oxo-1,6-dihydropyridazin-3-yl)piperidine-1-carboxamide], the figures for the IC50 on SCD1 (setting [1]) and at SCD5 (setting [2]) were 2710 nM and 140 nM, respectively.

For the compound `Cn1nc(NC(=O)N2CCC(Cc3ccc(Cl)cc3)CC2)ccc1=O` [Compound 43], the figures for the IC50 on SCD1 (setting [1]) and on SCD5 (setting [2]) were 8580 nM and 2240 nM, respectively.

Consider `Cn1nc(NC(=O)N2CCC(Cc3ccc(F)cc3)CC2)ccc1=O` [Compound 44, 4-(4-fluorobenzyl)-N-(1-methyl-6-oxo-1,6-dihydropyridazin-3-yl)piperidine-1-carboxamide], for which the IC50 on SCD1 turned out to be 2210 nM; at SCD5 it was 1170 nM.

`Cn1nc(NC(=O)N2CCC(F)(Cc3cccc(F)c3)CC2)ccc1=O` [Compound 45, 4-fluoro-4-(3-fluorobenzyl)-N-(1-methyl-6-oxo-1,6-dihydropyridazin-3-yl)piperidine-1-carboxamide]: the IC50 worked out at 1680 nM on SCD1 (setting [1]) and 220 nM on SCD5 (setting [2]).

Consider `Cn1nc(NC(=O)N2CCC(F)(Cc3cccc(Cl)c3)CC2)ccc1=O` [Compound 46], for which the IC50 at SCD1 (setting [1]) came to 640 nM; on SCD5 (setting [2]), 30 nM.

As to `Cn1nc(NC(=O)N2CCC(O)(Cc3cccc(F)c3)CC2)ccc1=O` [Compound 47, 4-(3-fluorobenzyl)-4-hydroxy —N-(1-methyl-6-oxo-1,6-dihydropyridazin-3-yl)piperidine-1-carboxamide], the IC50 at SCD1 (setting [1]) and at SCD5 (setting [2]) was over 45000 nM each time.

In the case of `COC1(Cc2cccc(F)c2)CCN(C(=O)Nc2ccc(=O)n(C)n2)CC1` [Compound 48, 4-(3-fluorobenzyl)-4-methoxy —N-(1-methyl-6-oxo-1,6-dihydropyridazin-3-yl)piperidine-1-carboxamide], the IC50 at SCD1 (setting [1]) and at SCD5 (setting [2]) was over 45000 nM each time.

On to `Cn1nc(NC(=O)N2CCC(Cc3ccc(F)c(F)c3)CC2)ccc1=O` [Compound 49, 4-(3,4-difluorobenzyl)-N-(1-methyl-6-oxo-1,6-dihydropyridazin-3-yl)piperidine-1-carboxamide], for which the results for the IC50 on SCD1 (setting [1]) and at SCD5 (setting [2]) were 8100 nM and 430 nM, respectively.

Take `Cn1nc(NC(=O)N2CCC(Cc3cc(F)cc(C#N)c3)CC2)ccc1=O` [Compound 50]: the IC50 on SCD1 (setting [1]) was 17100 nM; on SCD5 (setting [2]), 2460 nM.

Turning to `Cn1nc(NC(=O)N2CCC(Cc3ccc(Cl)c(F)c3)CC2)ccc1=O` [Compound 52, 4-(4-chloro-3-fluorobenzyl)-N-(1-methyl-6-oxo-1,6-dihydropyridazin-3-yl)piperidine-1-carboxamide], the values for the IC50 on SCD1 (setting [1]) and at SCD5 (setting [2]) were 2400 nM and 330 nM, respectively.

Regarding `Cn1nc(NC(=O)N2CCC(Cc3cc(F)ccc3F)CC2)ccc1=O` [Compound 53], the IC50 came to 1180 nM at SCD1 (setting [1]) and 130 nM at SCD5 (setting [2]).

On to `Cn1nc(NC(=O)N2CCC(Cc3ccc(F)c(Cl)c3)CC2)ccc1=O` [Compound 54, 4-(3-chloro-4-fluorobenzyl)-N-(1-methyl-6-oxo-1,6-dihydropyridazin-3-yl)piperidine-1-carboxamide], for which the IC50 at SCD1 (setting [1]) was 440 nM; at SCD5 (setting [2]), 40 nM.

Turning to `Cn1nc(NC(=O)N2CCC(Cc3cc(F)cc(Cl)c3)CC2)ccc1=O` [Compound 55, 4-(3-chloro-5-fluorobenzyl)-N-(1-methyl-6-oxo-1,6-dihydropyridazin-3-yl)piperidine-1-carboxamide], the IC50 at SCD1 (setting [1]) turned out to be 160 nM; on SCD5 (setting [2]), 20 nM.

In the case of `Cn1nc(NC(=O)N2CCC(Cc3cccc(C#N)c3Cl)CC2)ccc1=O` [Compound 56, 4-(2-chloro-3-cyanobenzyl)-N-(1-methyl-6-oxo-1,6-dihydropyridazin-3-yl)piperidine-1-carboxamide], the IC50 at SCD1 (setting [1]) and at SCD5 (setting [2]) was over 45000 nM throughout.

Consider `Cn1nc(NC(=O)N2CCC(Cc3cc(Cl)cc(C#N)c3)CC2)ccc1=O` [Compound 57, 4-(3-chloro-5-cyanobenzyl)-N-(1-methyl-6-oxo-1,6-dihydropyridazin-3-yl)piperidine-1-carboxamide], for which the IC50 was 9200 nM on SCD1 (setting [1]) and 2600 nM on SCD5 (setting [2]).

On to `Cn1nc(NC(=O)N2CCC(Cc3ccc(F)c(C#N)c3)CC2)ccc1=O` [Compound 58, 4-(3-cyano-4-fluorobenzyl)-N-(1-methyl-6-oxo-1,6-dihydropyridazin-3-yl)piperidine-1-carboxamide], for which the IC50 at SCD1 (setting [1]) is over 45000 nM; at SCD5 (setting [2]) it was 10400 nM.

Consider `Cn1nc(NC(=O)N2CCC(F)(Cc3cc(F)cc(F)c3)CC2)ccc1=O` [Compound 59, 4-(3,5-difluorobenzyl)-4-fluoro —N-(1-methyl-6-oxo-1,6-dihydropyridazin-3-yl)piperidine-1-carboxamide], for which the IC50 at SCD1 (setting [1]) was over 45000 nM; on SCD5 (setting [2]), 11000 nM.

Regarding `Cn1nc(NC(=O)N2CCC(F)(Cc3ccc(F)c(F)c3)CC2)ccc1=O` [Compound 60, 4-(3,4-difluorobenzyl)-4-fluoro —N-(1-methyl-6-oxo-1,6-dihydropyridazin-3-yl)piperidine-1-carboxamide], the IC50 came out at 3900 nM on SCD1 (setting [1]) and 1100 nM on SCD5 (setting [2]).

Turning to `Cn1nc(NC(=O)N2CCC(Cc3cc(F)c(F)cc3Cl)CC2)ccc1=O` [Compound 61, 4-(2-chloro-4,5-difluorobenzyl)-N-(1-methyl-6-oxo-1,6-dihydropyridazin-3-yl)piperidine-1-carboxamide], the IC50 turned out to be 80 nM on SCD1 (setting [1]) and 40 nM on SCD5 (setting [2]).

For the compound `Cn1nc(NC(=O)N2CCC(Cc3cc(F)c(F)c(F)c3)CC2)ccc1=O` [Compound 62, N-(1-methyl-6-oxo-1,6-dihydropyridazin-3-yl)-4-(3,4,5-trifluorobenzyl)piperidine-1-carboxamide], the IC50 at SCD1 (setting [1]) worked out at 390 nM; at SCD5 (setting [2]) it was 20 nM.

With `Cn1nc(NC(=O)N2CCC(Cc3cc(F)c(F)c(Cl)c3)CC2)ccc1=O` [Compound 63, 4-(3-chloro-4,5-difluorobenzyl)-N-(1-methyl-6-oxo-1,6-dihydropyridazin-3-yl)piperidine-1-carboxamide], the IC50 was 130 nM on SCD1 (setting [1]) and 10 nM on SCD5 (setting [2]).

As for `Cn1nc(NC(=O)N2CCC(Cc3cc(F)cc(F)c3Cl)CC2)ccc1=O` [Compound 64, 4-(2-chloro-3,5-difluorobenzyl)-N-(1-methyl-6-oxo-1,6-dihydropyridazin-3-yl)piperidine-1-carboxamide], the values for the IC50 at SCD1 (setting [1]) and on SCD5 (setting [2]) were 50 nM and 10 nM, respectively.

Take `Cn1nc(NC(=O)N2CCC(Cc3cc(F)c(F)c(C#N)c3)CC2)ccc1=O` [Compound 65, 4-(3-cyano-4,5-difluorobenzyl)-N-(1-methyl-6-oxo-1,6-dihydropyridazin-3-yl)piperidine-1-carboxamide]: the IC50 on SCD1 (setting [1]) turned out to be 8150 nM; at SCD5 (setting [2]) it was 1490 nM.

Consider `Cn1nc(NC(=O)N2CCC(F)(Cc3cc(F)c(F)c(Cl)c3)CC2)ccc1=O` [Compound 66, 4-(3-chloro-4,5-difluorobenzyl)-4-fluoro —N-(1-methyl-6-oxo-1,6-dihydropyridazin-3-yl)piperidine-1-carboxamide], for which the results for the IC50 on SCD1 (setting [1]) and at SCD5 (setting [2]) were 6500 nM and 920 nM, respectively.

The record behind these values is patent publication US20250034125A1, “COMPOUNDS AND USES THEREOF” (JANSSEN PHARMACEUTICA NV, priority 2019, published 2025).
